Experimental data reported in patent publication US20060211045A1, “Fluorescently tagged ligands” (priority 2003, published 2006).

What was measured:
[1] = target: human adenosine A1-receptor (Homo sapiens, UniProt P30542); assay: biochemical
[2] = target: T1, human adenosine A1 receptor (A1-AR) (Homo sapiens, UniProt P30542); assay: Fluorescence correlation spectroscopy (FCS) of ligand binding on CHO-A1 cells
T1 construct: expressed in transfected cells; host or cells: CHO (CHO-K1) cells: CHO-A1 and CHO-A1fos; cell membranes in A1, whole or live cells in the other assays
T1 sequence (P30542 1-326): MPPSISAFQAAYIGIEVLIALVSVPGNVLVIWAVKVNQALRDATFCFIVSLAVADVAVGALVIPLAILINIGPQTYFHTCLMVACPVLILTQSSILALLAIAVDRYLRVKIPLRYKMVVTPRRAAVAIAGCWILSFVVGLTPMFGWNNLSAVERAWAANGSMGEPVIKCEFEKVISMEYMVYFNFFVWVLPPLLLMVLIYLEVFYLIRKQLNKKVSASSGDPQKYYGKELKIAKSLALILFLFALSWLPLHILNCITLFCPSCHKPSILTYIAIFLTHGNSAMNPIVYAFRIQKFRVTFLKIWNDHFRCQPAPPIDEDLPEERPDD
From the text: FCS is a non-invasive technique which measures fluctuations in fluorescence intensity in a confocal volume of <10^−15 l. Statistical analysis of these fluctuations gives information about the speed of diffusion (i.e. mass) and concentration of the fluorescent molecules present. Thus free ligand (fast diffusing) and bound ligand (slow diffusing) can be quantified simultaneously on a single cell. We have used FCS to measure binding of the fluorescent ligand, xanthine amine cogener-BODIPY®630/650 (XAC-BY630) to the human adenosine A1 receptor (A1-AR).
CHO cells expressing either the human A1-AR or an A1-AR-Topaz fusion were cultured on glass-bottomed 8-well plates and prepared for live cell measurement FCS measurements were made using a Zeiss Confocor 2, fitted with an Axiocam CCD camera for x-y positioning. Cells were incubated with ligands at 22° C. for the times indicated and the confocal volume was positioned on the upper membrane. Data were collected for 2×30 s, following a 15 s pre-bleach and analysed using a multi-parameter equation using Zeiss AIM software.

human A1-receptor = target: T2, human A1-receptor (Homo sapiens, UniProt P30542); assay: Live cell confocal imaging of ligand binding to CHO-A1 cells; type: cell-based; parameters: expressed in transfected cells; host or cells: CHO (CHO-K1) cells: CHO-A1 and CHO-A1fos; cell membranes in A1, whole or live cells in the other assays
T2 sequence (P30542 1-326): T1 sequence (P30542 1-326)
Experimental: Images were acquired using a Zeiss LSM510 confocal microscope using CHO-A1 cells grown to 50% confluency on 8-well Labtek™ plates in Dulbecco's
Modification of Eagle's Medium:Ham's F12 containing 5% foetal calf serum and 2 mM glutamine. Cells were washed twice with HEPES-buffered saline prior to incubation at 22° C. with compounds as indicated.
Functional studies were performed in CHO-K1 cells expressing both the human A1-AR and a c-fos-pGL3 reporter vector (CHO-A1fos cells). […] Luciferase expression was quantified using a Luclite® kit according to manufacturer's instructions. Live cell confocal imaging was carried out on CHO-A1 cells or CHO cells expressing the A1-AR tagged on the C-terminus with a green fluorescent protein (CHO-A1Tpz).

SMILES	Kb [1] [nM]	Amount of τD1 component after DPCPX preincubation ([2]; 15 nM XAC-BY630 for 30 min, DPCPX 1 μM, 30 min preincubation, n=4) [receptors/μm^2]	Amount of τD1 component ([2]; 15 nM XAC-BY630 for 30 min, no DPCPX, n=8) [receptors/μm^2]	Diffusion time τD of free ligand in buffer (FCS) ([2]; in buffer, single component, n=10) [μs]	Diffusion time τD2, very slow diffusing component (non-specific binding) ([2]; upper membrane of CHO-A1 cells, XAC-BY630 1-40 nM, 10-60 min, 61/71 cells) [ms]	Diffusion time τD1, first slow-diffusing component (receptor-bound ligand) ([2]; upper membrane of CHO-A1 cells, XAC-BY630 1-40 nM, 10-60 min, 69/71 cells) [ms]	Binding to membrane-localised A1-ARs (confocal imaging) (human A1-receptor; CHO-A1 cells, 22° C.)	Time after which binding was detected (confocal imaging) (human A1-receptor; XAC-BY630 25-250 nM, CHO-A1 cells) [min]	Inhibition of membrane binding of XAC-BY630 (confocal imaging) (human A1-receptor; 30 min pre-incubation with DPCPX 10^−8-10^−6M, XAC-BY630 30 min, 50 nM)
CCCn1c(=O)c2[nH]c(-c3ccc(OCC(=O)NCCNC(=O)CCCCCNC(=O)COc4ccc(/C=C/C5=[N+]6C(=Cc7ccc(-c8cccs8)n7[B-]6(F)F)C=C5)cc4)cc3)nc2n(CCC)c1=O [XAC-BY630, xanthine amine cogener-BODIPY®630/650]	126	13.6±5.4	51.8±14.9	60±2	345 ± 41	17.4 ± 1.1	time- and concentration-dependent manner	5	
CCCn1c(=O)c2[nH]c(C3CCCC3)nc2n(CCC)c1=O [DPCPX, 8-cyclopentyl-1,3-dipropyl xanthine, reference compound]									concentration-dependent inhibition
